Data on 3 molecules can be found in ChEMBL document CHEMBL1201862, “PubChem BioAssay data set” (2004).

The structures appear in SMILES notation. The source made the active and inactive calls.

As usually defined, the EC50 is the concentration needed to bring the measured effect to its halfway point. Lower therefore signals greater potency. In general, Ki refers to a dissociation constant, usually derived from enzyme kinetics or from competition with a known ligand. For orientation: IC50 means the concentration that gives 50% inhibition.

A short description of one test: cells. Format: functional, cell-based.
The target in test [1] is Tyrosine-protein kinase JAK2 (Homo sapiens, UniProt O60674). The format is functional.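 Note: JAK2 tested as one member of a kinase panel.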
Test [2] deals with Serine/threonine-protein kinase PLK3 (Homo sapiens, UniProt Q9H4B4). Format: functional.
Test [3] deals with 5'-AMP-activated protein kinase catalytic subunit alpha-1 (Homo sapiens, UniProt Q13131). Format: functional.
Test [4] concerns the target Ribosomal protein S6 kinase beta-1 (Homo sapiens, UniProt P23443). The format is functional.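 Note: measured as one member of a kinome-wide profiling panel.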
The target of test [5] is MAP/microtubule affinity-regulating kinase 4 (Homo sapiens, UniProt Q96L34). Briefly: Navigating the Kinome. Panel member name: MARK4. Format: functional.
Test [6] addresses Tyrosine-protein kinase Lck (Homo sapiens, UniProt P06239). Format: functional.
Test [7] addresses Serine/threonine-protein kinase Chk2 (Homo sapiens, UniProt O96017). Format: functional.
In a further test the target is Activin receptor type-1 (Homo sapiens, UniProt Q04771). The test is described as follows: Navigating the Kinome. Panel member name: ACVR1. The format is functional.
Test [8] deals with Rho-associated protein kinase 2 (Homo sapiens, UniProt O75116). The format is functional.
Test [9] has as its target Mast/stem cell growth factor receptor Kit (Homo sapiens, UniProt P10721). The format is functional.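 Note: KIT entry within a kinase panel assay.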
In test [10] the target is Calcium/calmodulin-dependent protein kinase type II subunit delta (Homo sapiens, UniProt Q13557). Format: functional.
In test [11] the target is Fibroblast growth factor receptor 1 (Homo sapiens, UniProt P11362). Format: functional.
Test [12] addresses Casein kinase I isoform alpha (Homo sapiens, UniProt P48729). Format: functional.
For test [13], the target named is Tyrosine-protein kinase ITK/TSK (Homo sapiens, UniProt Q08881). The format is functional.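 Note: affinity for ITK measured as one member of a broad kinase panel profiling binding across the kinome.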
For test [14], the target named is Proto-oncogene tyrosine-protein kinase ROS (Homo sapiens, UniProt P08922). The format is functional.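 Note: ROS1 tested as one member of a kinome-wide kinase panel.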
The target of test [15] is Tyrosine-protein kinase Blk (Homo sapiens, UniProt P51451). Format: functional.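 Note: obtained as one member of a kinome-wide kinase assay panel.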
For test [16], the target named is Testis-specific serine/threonine-protein kinase 1 (Homo sapiens, UniProt Q9BXA7). The format is functional.
A further test deals with Insulin receptor (Homo sapiens, UniProt P06213). Format: functional.
The target in test [17] is Non-receptor tyrosine-protein kinase TYK2 (Homo sapiens, UniProt P29597). The format is functional.
The target of test [18] is Tyrosine-protein kinase Srms (Homo sapiens, UniProt Q9H3Y6). The format is functional.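 Note: SRMS measured as one member of a kinome-wide kinase profiling panel.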
The target in test [19] is Mitogen-activated protein kinase kinase kinase kinase 2 (Homo sapiens, UniProt Q12851). The format is functional.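 Note: measured as one member of a kinome-wide kinase panel, with MAP4K2 as the panel entry.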
Test [20] concerns the target Insulin-like growth factor 1 receptor (Homo sapiens, UniProt P08069). The test is described as follows: Navigating the Kinome. Panel member name: IGF1R. The format is functional.
Another test deals with Misshapen-like kinase 1 (Homo sapiens, UniProt Q8N4C8). The format is functional.
In test [21] the target is Leucine-rich repeat serine/threonine-protein kinase 2 (Homo sapiens, UniProt Q5S007). The format is functional.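 Note: value from a broad kinome-wide panel profiling study in which LRRK2 was one of the kinases tested.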
Test [22] deals with Serine/threonine-protein kinase pim-2 (Homo sapiens, UniProt Q9P1W9). Format: functional.
Test [23] deals with Serine/threonine-protein kinase DCLK1 (Homo sapiens, UniProt O15075). The format is functional.
The target in test [24] is STE20-like serine/threonine-protein kinase (Homo sapiens, UniProt Q9H2G2). Format: functional.
In test [25] the target is Serine/threonine-protein kinase PLK1 (Homo sapiens, UniProt P53350). Format: functional.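 Note: PLK1 measured as one member of a kinome-wide profiling panel.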
Test [26] addresses cAMP-dependent protein kinase catalytic subunit alpha (Homo sapiens, UniProt P17612). The format is functional.
For test [27], the target named is Lymphokine-activated killer T-cell-originated protein kinase (Homo sapiens, UniProt Q96KB5). The format is functional.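 Note: value comes from a kinase panel screen in which TOPK was one of the panel members.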
Test [28] deals with Dual specificity tyrosine-phosphorylation-regulated kinase 1A (Homo sapiens, UniProt Q13627). Format: functional.
For test [29], the target named is Mitogen-activated protein kinase 10 (Homo sapiens, UniProt P53779). Briefly: Navigating the Kinome. Panel member name: MAPK10. Format: functional.
Test [30] concerns the target Leukocyte tyrosine kinase receptor (Homo sapiens, UniProt P29376). The test is described as follows: Navigating the Kinome. Panel member name: LTK. Format: functional.
In test [31] the target is T1, Calpain-2 catalytic subunit (Sus scrofa, UniProt P43367).
T1 sequence (P43367 whole entry): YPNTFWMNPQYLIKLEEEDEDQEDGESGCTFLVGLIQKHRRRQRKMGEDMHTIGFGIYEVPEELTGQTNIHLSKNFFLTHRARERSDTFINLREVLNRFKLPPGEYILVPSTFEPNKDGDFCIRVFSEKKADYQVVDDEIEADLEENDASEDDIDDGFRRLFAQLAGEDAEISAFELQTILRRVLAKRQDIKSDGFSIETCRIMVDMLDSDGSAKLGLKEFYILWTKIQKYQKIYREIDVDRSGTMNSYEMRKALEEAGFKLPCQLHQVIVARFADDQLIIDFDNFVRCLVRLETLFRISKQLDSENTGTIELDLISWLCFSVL
Briefly: pig calpain II inhibitor potency, dose response, biochemical, fluorogenic peptide substrate (AID 1420). Format: functional.

For test [32], the target named is Induced myeloid leukemia cell differentiation protein Mcl-1 (Homo sapiens, UniProt Q07820). The format is functional.
In another test the target is Nonstructural protein 1 (Influenza A virus, UniProt Q194T2). The format is functional, Influenza A virus (A/California/07/2009(H1N1)).
Test [33] is described as follows: Counterscreen for AddAB inhibitors: absorbance-based bacterial cell-based high throughput dose response assay for inhibitors of bacterial viability. [Related pubchem assays (depositor defined):AID435030, AID449728, AID449731, AID488942, AID488955, AID488956]. The format is functional.

Leukocyte tyrosine kinase receptor, sequence (P29376 whole entry): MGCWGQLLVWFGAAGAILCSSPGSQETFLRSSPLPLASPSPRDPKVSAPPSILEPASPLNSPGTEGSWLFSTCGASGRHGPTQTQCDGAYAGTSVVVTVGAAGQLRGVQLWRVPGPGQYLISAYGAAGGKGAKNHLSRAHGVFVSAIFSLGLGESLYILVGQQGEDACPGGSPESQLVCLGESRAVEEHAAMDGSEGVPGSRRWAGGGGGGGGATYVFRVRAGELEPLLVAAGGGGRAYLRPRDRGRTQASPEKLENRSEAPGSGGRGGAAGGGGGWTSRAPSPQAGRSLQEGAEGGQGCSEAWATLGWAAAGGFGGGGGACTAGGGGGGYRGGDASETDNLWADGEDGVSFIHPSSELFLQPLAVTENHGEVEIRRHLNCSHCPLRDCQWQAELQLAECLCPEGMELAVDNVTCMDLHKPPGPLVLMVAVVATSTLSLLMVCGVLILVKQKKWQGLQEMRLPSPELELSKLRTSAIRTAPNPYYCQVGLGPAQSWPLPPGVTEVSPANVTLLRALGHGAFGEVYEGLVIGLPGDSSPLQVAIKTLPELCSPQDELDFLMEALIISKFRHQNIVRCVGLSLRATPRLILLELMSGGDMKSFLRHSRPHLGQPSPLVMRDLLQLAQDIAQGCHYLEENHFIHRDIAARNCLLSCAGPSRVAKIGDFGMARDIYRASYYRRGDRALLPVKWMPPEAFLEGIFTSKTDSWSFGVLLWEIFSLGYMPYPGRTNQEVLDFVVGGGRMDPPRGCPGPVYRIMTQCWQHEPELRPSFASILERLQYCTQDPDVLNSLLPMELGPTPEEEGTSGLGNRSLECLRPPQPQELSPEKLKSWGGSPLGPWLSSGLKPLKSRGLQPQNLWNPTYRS
Activin receptor type-1, sequence (Q04771 whole entry): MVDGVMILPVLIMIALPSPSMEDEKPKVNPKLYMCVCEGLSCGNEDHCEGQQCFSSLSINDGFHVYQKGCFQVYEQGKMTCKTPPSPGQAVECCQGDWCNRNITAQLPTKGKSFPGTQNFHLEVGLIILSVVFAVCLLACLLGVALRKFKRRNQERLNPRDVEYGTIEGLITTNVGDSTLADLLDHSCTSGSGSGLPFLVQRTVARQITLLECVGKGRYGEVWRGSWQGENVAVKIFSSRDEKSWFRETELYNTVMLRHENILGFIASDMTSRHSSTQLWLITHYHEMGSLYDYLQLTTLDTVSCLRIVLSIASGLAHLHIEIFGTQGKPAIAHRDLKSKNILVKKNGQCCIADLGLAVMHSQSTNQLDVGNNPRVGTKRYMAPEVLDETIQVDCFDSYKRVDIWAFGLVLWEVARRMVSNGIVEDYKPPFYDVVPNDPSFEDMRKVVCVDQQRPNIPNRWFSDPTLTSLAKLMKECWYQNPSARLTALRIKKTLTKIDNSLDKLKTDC
Serine/threonine-protein kinase Chk2, sequence (O96017 whole entry): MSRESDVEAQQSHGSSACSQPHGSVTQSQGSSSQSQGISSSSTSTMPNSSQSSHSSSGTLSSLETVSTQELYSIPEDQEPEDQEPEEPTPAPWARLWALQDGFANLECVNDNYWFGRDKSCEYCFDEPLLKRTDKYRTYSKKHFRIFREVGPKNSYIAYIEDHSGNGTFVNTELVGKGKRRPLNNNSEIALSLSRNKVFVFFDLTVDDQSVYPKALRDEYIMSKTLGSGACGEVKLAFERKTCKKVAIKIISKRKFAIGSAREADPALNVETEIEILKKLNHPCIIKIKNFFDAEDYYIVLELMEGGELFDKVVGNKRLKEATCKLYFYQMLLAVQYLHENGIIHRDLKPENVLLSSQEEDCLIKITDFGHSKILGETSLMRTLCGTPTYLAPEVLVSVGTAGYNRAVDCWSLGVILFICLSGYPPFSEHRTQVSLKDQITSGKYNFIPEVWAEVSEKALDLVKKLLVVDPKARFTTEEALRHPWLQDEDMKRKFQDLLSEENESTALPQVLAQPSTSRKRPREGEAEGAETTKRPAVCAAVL
MAP/microtubule affinity-regulating kinase 4, sequence (Q96L34 whole entry): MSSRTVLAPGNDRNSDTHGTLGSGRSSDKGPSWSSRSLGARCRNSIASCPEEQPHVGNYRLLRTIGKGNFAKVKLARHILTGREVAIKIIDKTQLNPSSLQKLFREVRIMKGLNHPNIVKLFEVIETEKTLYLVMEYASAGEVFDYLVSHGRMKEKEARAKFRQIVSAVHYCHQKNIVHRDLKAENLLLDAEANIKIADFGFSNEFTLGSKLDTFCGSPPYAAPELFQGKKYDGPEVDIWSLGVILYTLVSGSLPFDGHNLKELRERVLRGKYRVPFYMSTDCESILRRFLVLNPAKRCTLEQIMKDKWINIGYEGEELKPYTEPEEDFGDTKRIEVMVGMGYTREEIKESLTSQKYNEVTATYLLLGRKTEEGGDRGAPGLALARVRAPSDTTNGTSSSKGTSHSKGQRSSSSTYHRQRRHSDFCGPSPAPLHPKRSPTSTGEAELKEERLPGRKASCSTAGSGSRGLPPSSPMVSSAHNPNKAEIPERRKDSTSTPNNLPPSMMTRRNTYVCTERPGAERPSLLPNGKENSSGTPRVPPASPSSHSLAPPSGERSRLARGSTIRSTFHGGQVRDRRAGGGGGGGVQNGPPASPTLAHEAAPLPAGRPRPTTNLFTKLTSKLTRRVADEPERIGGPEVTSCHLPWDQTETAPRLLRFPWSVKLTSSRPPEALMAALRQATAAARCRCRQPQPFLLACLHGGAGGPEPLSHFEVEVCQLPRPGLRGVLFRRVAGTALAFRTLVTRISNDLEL
Fibroblast growth factor receptor 1, sequence (P11362 whole entry, canonical isoform): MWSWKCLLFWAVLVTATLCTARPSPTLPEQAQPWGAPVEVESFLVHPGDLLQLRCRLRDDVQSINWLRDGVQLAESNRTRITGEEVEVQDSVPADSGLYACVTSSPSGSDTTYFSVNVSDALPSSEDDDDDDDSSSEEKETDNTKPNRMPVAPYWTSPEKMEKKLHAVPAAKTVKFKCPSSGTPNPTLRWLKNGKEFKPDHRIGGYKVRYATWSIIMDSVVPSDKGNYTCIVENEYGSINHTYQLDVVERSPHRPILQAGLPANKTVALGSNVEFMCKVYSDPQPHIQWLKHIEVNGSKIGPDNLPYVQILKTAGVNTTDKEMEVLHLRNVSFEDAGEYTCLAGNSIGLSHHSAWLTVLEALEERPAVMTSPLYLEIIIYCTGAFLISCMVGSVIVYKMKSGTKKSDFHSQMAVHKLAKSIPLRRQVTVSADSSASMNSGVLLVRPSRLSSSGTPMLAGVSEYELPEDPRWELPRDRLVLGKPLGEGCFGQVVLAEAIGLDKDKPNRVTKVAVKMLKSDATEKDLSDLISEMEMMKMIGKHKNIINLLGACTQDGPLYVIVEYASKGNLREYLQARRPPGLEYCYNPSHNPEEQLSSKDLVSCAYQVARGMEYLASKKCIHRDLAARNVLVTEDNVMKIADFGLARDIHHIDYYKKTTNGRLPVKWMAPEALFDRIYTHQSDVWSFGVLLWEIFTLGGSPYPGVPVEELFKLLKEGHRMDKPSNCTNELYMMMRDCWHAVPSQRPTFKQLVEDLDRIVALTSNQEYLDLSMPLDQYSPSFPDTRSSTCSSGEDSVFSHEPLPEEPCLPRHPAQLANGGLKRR
Insulin-like growth factor 1 receptor, sequence (P08069 31-736 limits assumed): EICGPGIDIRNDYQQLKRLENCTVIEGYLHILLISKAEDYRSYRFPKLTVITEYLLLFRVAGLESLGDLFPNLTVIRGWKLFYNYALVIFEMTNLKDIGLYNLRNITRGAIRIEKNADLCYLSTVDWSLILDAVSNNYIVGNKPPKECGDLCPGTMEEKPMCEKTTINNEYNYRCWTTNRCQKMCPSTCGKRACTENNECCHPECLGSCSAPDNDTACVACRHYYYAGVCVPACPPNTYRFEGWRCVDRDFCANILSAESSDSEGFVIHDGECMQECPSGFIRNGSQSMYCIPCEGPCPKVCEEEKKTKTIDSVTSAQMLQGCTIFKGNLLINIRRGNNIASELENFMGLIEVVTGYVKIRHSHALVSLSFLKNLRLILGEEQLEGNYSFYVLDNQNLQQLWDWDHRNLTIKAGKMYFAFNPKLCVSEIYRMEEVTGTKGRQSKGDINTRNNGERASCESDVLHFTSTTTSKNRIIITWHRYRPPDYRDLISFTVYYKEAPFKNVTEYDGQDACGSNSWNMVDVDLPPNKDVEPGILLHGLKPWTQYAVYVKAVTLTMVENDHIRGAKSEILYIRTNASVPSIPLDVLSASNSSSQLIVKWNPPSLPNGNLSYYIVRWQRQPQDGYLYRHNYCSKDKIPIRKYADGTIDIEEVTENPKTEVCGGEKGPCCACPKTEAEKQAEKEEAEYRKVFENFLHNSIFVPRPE
Insulin-like growth factor 1 receptor, sequence (P08069 741-1367 limits assumed): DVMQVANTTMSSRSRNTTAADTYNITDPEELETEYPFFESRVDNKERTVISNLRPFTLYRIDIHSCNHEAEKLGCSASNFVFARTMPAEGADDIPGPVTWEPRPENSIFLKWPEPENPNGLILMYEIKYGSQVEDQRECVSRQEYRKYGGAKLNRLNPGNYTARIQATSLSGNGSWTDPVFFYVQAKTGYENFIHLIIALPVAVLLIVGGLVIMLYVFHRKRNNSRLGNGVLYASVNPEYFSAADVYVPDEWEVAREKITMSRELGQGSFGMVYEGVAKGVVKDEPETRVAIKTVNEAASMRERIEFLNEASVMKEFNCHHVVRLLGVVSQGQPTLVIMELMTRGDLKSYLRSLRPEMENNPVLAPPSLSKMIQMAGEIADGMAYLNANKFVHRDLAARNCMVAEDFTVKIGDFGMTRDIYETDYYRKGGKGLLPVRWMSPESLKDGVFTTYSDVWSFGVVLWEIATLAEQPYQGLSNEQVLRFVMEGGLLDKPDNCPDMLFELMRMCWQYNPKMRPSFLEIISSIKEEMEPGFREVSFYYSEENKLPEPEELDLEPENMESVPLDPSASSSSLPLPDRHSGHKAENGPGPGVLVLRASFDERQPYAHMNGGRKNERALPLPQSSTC

`CCOC(=O)c1c(NS(=O)(=O)c2ccccc2)n(CCCOC)c2nc3ccccc3nc12`: the 50% effective concentration (EC50) in the test “cells” is reported as > 350 µM (not active).
For `OC1CCC(Nc2cc(Cl)nc(-c3c[nH]c4ncccc34)n2)CC1` (stereo not drawn), the inhibition constant (Ki) in test [1] was 0.158 µM (active); in [2], 3.98 µM (active); in test [3], 0.2 µM (active); in test [4], 0.251 µM (active); in [5], 0.398 µM (active); in test [6], > 3.16 µM (inactive). The Ki is 0.398 µM (active) in [7]; > 3.98 µM (inactive) at Activin receptor type-1; 0.0126 µM (active) in test [8]; > 2.51 µM (inactive) in test [9]; > 1.58 µM (inactive) in [10]; > 2 µM (inactive) in test [11]. In addition, the Ki in [12] is > 2.51 µM (inactive); in test [13], > 1.58 µM (inactive); in test [14], 0.794 µM (active); in [15], > 0.794 µM (inactive); in [16] it was > 1 µM (inactive); at Insulin receptor it was > 3.98 µM (inactive). Moreover, the Ki is > 1.26 µM (inactive) in test [17]; > 1.58 µM (inactive) in test [18]; 0.00794 µM (active) in test [19]; > 2 µM (inactive) in test [20]; 0.00398 µM (active) on Misshapen-like kinase 1; 0.0316 µM (active) in [21]. For the same molecule, the inhibitory constant (Ki) is 0.251 µM (active) in test [22]; > 10 µM (inactive) in test [23]; 0.126 µM (active) in test [24]; > 5.01 µM (inactive) in test [25]; 0.126 µM (active) in test [26]; 3.98 µM (active) in [27]. For the same molecule, the values for the Ki in test [28], in test [29] and in [30] were 0.0501 µM (active), > 3.16 µM (inactive) and > 2.51 µM (inactive), respectively.
As for `COCC/N=c1\scc(-c2cccs2)n1/N=C/c1ccc(O)c(O)c1O`, the IC50 in [31] was 38.9 µM (not active); in test [32], 5.17 µM (active); at Nonstructural protein 1, 42.9 µM (active); in test [33], > 119 µM (inactive).
